# Laboratory results reported in US11987582B2, “Maleate salts of triazolopyrazine derivatives, compositions, methods of use, and processes of manufacturing the same” (ABION Inc, priority 2021, dated 2024).
# Like-named read-outs stand apart in the source and are kept apart here.
# Experiments:
# [1] = pH-dependent solubility study; format: physicochemical
# [2] = long-term stability study, water uptake by TGA; format: physicochemical
# Experimental: The physical and chemical stability study was performed on the compounds of Chemical Formula 2 and Chemical Formula 1 (for reference purposes). The long-term stability study was conducted at defined temperatures and relative humidity levels (25° C./60% relative humidity (RH) and 40° C./75% RH). At regular intervals, a solid sample was analyzed by XRPD, TGMS and HPLC.
# [3] = thermodynamic solubility in formulation vehicles (phosphate buffer pH 7.4 with excipients); format: physicochemical; conditions: for solubility at 24 h: pH 7.4, aqueous with cosolvent or surfactant or cyclodextrin, thermodynamic from solid
# Experimental: In view of developing a formulation suitable for parenteral administration, the quantitative solubility of Chemical Formula land the Chemical Formula 2 were determined in phosphate buffer pH 7.4, supplemented with solubility-enhancing excipients. The target concentration is 1-1.3 mg/mL.
# Based on the qualitative solubility result determined for the PBS formulation vehicle containing Transcutol (Gattefossé, France) and TPGS (tocopherol polyethylene glycol succinate), the quantitative solubility of the compound of Chemical Formula 1 and the compound of Chemical Formula 2 was determined in those vehicles to assess the maximum solubility in those vehicles. The thermodynamic solubility was then determined in PBS buffer containing Transcutol (50% and 10%) and TPGS (20% and 10%) and also in the formulation vehicles containing PEG 400 (50%, with and without presence of 2% DMSO). Suspensions of the compound of Chemical Formula 1 and the compound of Chemical Formula 2 were prepared in the selected vehicles with a compound of Chemical Formula 1 concentration of about 3.5-5 mg/mL. After incubation for 24 hours at room temperature, the solids and liquid phases were separated. The concentration of API in solution was determined by HPLC analysis. The results can be found in FIG. 6.
# [4] = dynamic vapor sorption (DVS) analysis of hygroscopicity; format: physicochemical; conditions: humidity range below 80%, 25° C., in words
# Experimental: Differential scanning calorimetry (DSC) analysis was performed to confirm the thermal stability of the novel salts provided in the present disclosure, and dynamic vapor sorption (DVS) analysis was performed to confirm the hygroscopicity.
# The DVS analysis was performed to confirm the hygroscopicity of the salts by using a DVS-1 device, and was performed at a relative humidity of 40%, 95%, and 0% at 25° C. for 60 minutes.
# [5] = system: lung cancer cell line EBC-1; assay: cancer cell proliferation inhibitory experiment (SRB); format: cell-based, human
# Experimental: The following exemplary experimental protocol was performed to test the activity of the maleate salt compounds described herein.
# An RPMI 1640 cell culture medium, fetal bovine serum (FBS) and trypsin were purchased from GIBCO Co., Ltd. (Grand Island, N.Y.), and sodium hydrogencarbonate, amphotericin B and gentamycin were used as signamic medical products. In addition, reagents such as sulforhodamine (SRB) B, Trisma Base, and trichloroacetic acid (TCA), which were reagents used in a cytotoxicity measurement experiment, were purchased from Sigma Chemical Co., Ltd. For MTS analysis, a Celltiter 96 Aqueous Non-Radioactive Cell Proliferation Assay product was purchased from Promega Co., Ltd. Further, a T-25 culture container used for cell culture, a 96-well plate and other disposable glass used for cell culture were obtained from Folkon (Lincoln Park, N.J.) products.
# A drug used in the experiment was diluted as an experimental medium to a desired concentration in the test, and the final dimethylsulfoxide concentration was 0.5% or less.
# Cancer cell lines used in the experiment were human-derived cancer cell lines, and a lung cancer cell line EBC-1. RPMI 1640 medium with 10% fetal bovine serum (FBS) was used and cultured in an incubator of 37° C. and 5% CO2 and subcultured once by 3 to 4 days.
# Specifically, after the culture with the compound of the present disclosure was terminated, the culture solution was removed, and a cold TCA solution added to each well. The cells were left at 4° C. for 1 hour to be fixed. The TCA solution was removed, and the cells were dried at room temperature, incubated with a solution obtained by dissolving 0.4% SRB in a 1% acetic acid solution, left at room temperature for 30 minutes, and then stained. Extra SRB which was not bound to the cells was washed with a 1% acetic acid solution, and the SRB was eluted by adding a […] tris buffer solution (trisma base; unbuffered) of pH 10.3 to 10.5 to the stained cells.
# [6] = PK parameters in plasma after single administration; format: in vivo, Wistar rats; conditions: for AUC(0-inf) / AUC(0-t) / Cmax / Tmax: Wistar, rat, plasma
# [7] = PK parameters after bid (twice a day) administration; format: in vivo; conditions: for Cmax1 / Tmax1: after first daily dosing; for Cmax2 / Tmax2: after second daily dosing; for AUC / AUC(0-t): in vivo; for AUC: read-out: AUC(12-24 h)
# Excerpt: FIG. 10 and Table 4 show the PK properties of the compound of Chemical Formula 2 administered twice a day (bid).
# FIG. 11 and Table 5 show the PK properties of the compound of Chemical Formula 1 administered twice per day.
smiles,measurement,setting,value
CN1CCN(Cc2ccc(-c3cnc(N4CCOC(Cn5nnc6ncc(-c7cnn(C)c7)nc65)C4)nc3)cc2)CC1.O=C(O)/C=C\C(=O)O (stereo not shown) [Chemical Formula 2],less soluble than the free base form,[1]; gastric pH (FIG. 7),more than 50%
same,less soluble than the free base form,[1]; pH between 1 and 3,more than 75%
same,less soluble than the free base form,[1]; pH of about 1.2 in 0.05M gastric media,more than 75%
same,water content compared to the free base form,"[2]; 15 months, 40 degrees centigrade, 75% relative humidity (FIG. 4), in words",nearly four times lower
same,water content lower than the free base form,[2]; about 15 months at 40° C. and 75% relative humidity,at least 22%
same,water uptake,"[2]; incubation for 15 months under the tested conditions, in words",no significant water uptake
same,solubility at 24 h,"[3]; PBS formulation vehicle with 50% Transcutol, PBS vehicle containing 50% Transcutol, 24 hours at room temperature",> 3500 µg/mL
same,solubility compared with Chemical Formula 1,"[3]; all the formulation vehicles tested, in words",higher than that of the compound of Chemical Formula 1
same,solubility at 24 h,"[3]; almost all vehicles, except for the vehicle with 10% Transcutol",> 1300 µg/mL
same,mass loss due to change in humidity (DVS),[4],very low
same,GI50,"[5]; Homo sapiens, EBC-1, EBC-1 cell line",0.0142 µM
same,activity in inhibiting cancer cell growth compared to the compound of Chemical Formula 1,[5]; in words,improved activity in inhibiting cancer cell growth
same,AUClast/Dose,[6]; 5 mg/kg IV,1630 kg·nM·h/mg
same,AUC∞/Dose,[6]; 5 mg/kg IV,1655 kg·nM·h/mg
same,Cl,[6]; 5 mg/kg IV,0.000606 mg/h/nM/kg
same,Vss,[6]; 5 mg/kg IV,0.00271 mg/nM/kg
same,Vz,[6]; 5 mg/kg IV,0.00259 mg/nM/kg
same,AUClast/Dose,[6]; 5 mg/kg PO,347 kg·nM·h/mg
same,AUC∞/Dose,[6]; 5 mg/kg PO,355 kg·nM·h/mg
same,F,[6]; 5 mg/kg PO,21.4%
same,AUClast/Dose,[6]; 20 mg/kg PO,341 kg·nM·h/mg
same,AUC∞/Dose,[6]; 20 mg/kg PO,346 kg·nM·h/mg
same,F,[6]; 20 mg/kg PO,20.9%
same,AUC(0-inf),[6]; 5 mg/kg IV,8.27 µM·h
same,AUC(0-t),[6]; 5 mg/kg IV,8.13 µM·h
same,AUC(0-inf),[6]; 5 mg/kg PO,1.77 µM·h
same,AUC(0-t),[6]; 5 mg/kg PO,1.73 µM·h
same,Cmax,[6]; 5 mg/kg PO,246 nM
same,Tmax,[6]; 5 mg/kg PO,2 to 4 h
same,AUC(0-inf),[6]; 20 mg/kg PO,6.93 µM·h
same,AUC(0-t),[6]; 20 mg/kg PO,6.82 µM·h
same,Cmax,[6]; 20 mg/kg PO,676 nM
same,Tmax,[6]; 20 mg/kg PO,2 to 4 h
same,AUC(0-12 h)/Dose,[7]; 5 mg/kg IV (10 mg/kg/day),1060 kg·nM·h/mg
same,AUC(12-24 h)/Dose,[7]; 5 mg/kg IV (10 mg/kg/day),1470 kg·nM·h/mg
same,AUClast/Dose,[7]; 5 mg/kg IV (10 mg/kg/day),1298 kg·nM·h/mg
same,Cl,[7]; 5 mg/kg IV (10 mg/kg/day),0.00086 mg/h/nM/kg
same,Vss,[7]; 5 mg/kg IV (10 mg/kg/day),0.00782 mg/nM/kg
same,Vz,[7]; 5 mg/kg IV (10 mg/kg/day),0.00283 mg/nM/kg
same,AUC(0-12 h)/Dose,[7]; 5 mg/kg PO (10 mg/kg/day),685 kg·nM·h/mg
same,AUC(12-24 h)/Dose,[7]; 5 mg/kg PO (10 mg/kg/day),798 kg·nM·h/mg
same,AUClast/Dose,[7]; 5 mg/kg PO (10 mg/kg/day),742 kg·nM·h/mg
same,F,[7]; 5 mg/kg PO (10 mg/kg/day),57.2%
same,Cmax1,[7]; 5 mg/kg PO (10 mg/kg/day),611 nM
same,Tmax1,[7]; 5 mg/kg PO (10 mg/kg/day),0.5-3$ h
same,Cmax2,[7]; 5 mg/kg PO (10 mg/kg/day),802 nM
same,Tmax2,[7]; 5 mg/kg PO (10 mg/kg/day),12.5-13$ h
same,AUC(0-12 h)/Dose,[7]; 20 mg/kg PO (40 mg/kg/day),612 kg·nM·h/mg
same,AUC(12-24 h)/Dose,[7]; 20 mg/kg PO (40 mg/kg/day),601 kg·nM·h/mg
same,AUClast/Dose,[7]; 20 mg/kg PO (40 mg/kg/day),607 kg·nM·h/mg
same,F,[7]; 20 mg/kg PO (40 mg/kg/day),46.8%
same,Cmax1,[7]; 20 mg/kg PO (40 mg/kg/day),1600 nM
same,Tmax1,[7]; 20 mg/kg PO (40 mg/kg/day),2-3$ h
same,Cmax2,[7]; 20 mg/kg PO (40 mg/kg/day),2120 nM
same,Tmax2,[7]; 20 mg/kg PO (40 mg/kg/day),12.5-14$ h
same,AUC,[7]; 5 mg/kg IV (10 mg/kg/day),7.34 µM·h
same,AUC,[7]; 5 mg/kg PO (10 mg/kg/day),3.99 µM·h
same,AUC,[7]; 20 mg/kg PO (40 mg/kg/day),12 µM·h
same,AUC(0-t),"[7]; iv, 5 mg/kg, 5 mg/kg IV (10 mg/kg/day), read-out: AUC(0-12 h)",5.32 µM·h
same,AUC(0-t),"[7]; iv, 5 mg/kg, 5 mg/kg IV (10 mg/kg/day), read-out: AUClast",13 µM·h
same,AUC(0-t),"[7]; po, 5 mg/kg, 5 mg/kg PO (10 mg/kg/day), read-out: AUC(0-12 h)",3.43 µM·h
same,AUC(0-t),"[7]; po, 5 mg/kg, 5 mg/kg PO (10 mg/kg/day), read-out: AUClast",7.42 µM·h
same,AUC(0-t),"[7]; po, 20 mg/kg, 20 mg/kg PO (40 mg/kg/day), read-out: AUC(0-12 h)",12.2 µM·h
same,AUC(0-t),"[7]; po, 20 mg/kg, 20 mg/kg PO (40 mg/kg/day), read-out: AUClast",24.3 µM·h
